Laboratory results as given in ChEMBL document CHEMBL1159247, “Isolation of Novel Beauvericin Analogues from the Fungus Beauveria bassiana” (1995).
≈ marks a conversion by molar mass, not a printed value.

Test system: Aedes aegypti
Assay: Insecticidal in Aedes aegypti fourth instar mosquito larvae after 24 hrs
Format: functional

Work on `CC(C)[C@@H]1OC(=O)[C@@H](Cc2ccccc2)N(C)C(=O)[C@H](C(C)C)OC(=O)[C@@H](Cc2ccccc2)N(C)C(=O)[C@H](C(C)C)OC(=O)[C@@H](Cc2ccccc2)N(C)C1=O` [BEAUVERICIN] yielded an LC50 of 26 µg/mL (≈ 33.2 µM).
Work on `CC[C@H](C)[C@H]1OC(=O)[C@H](Cc2ccccc2)N(C)C(=O)[C@@H](C(C)C)OC(=O)[C@H](Cc2ccccc2)N(C)C(=O)[C@@H](C(C)C)OC(=O)[C@H](Cc2ccccc2)N(C)C1=O` [BEAUVERICIN A] yielded an LC50 of 31 µg/mL (≈ 38.8 µM).
